# Where two headings read alike, the source gives them in different places. Marks after values point to notes of the source that are not given here.
# Key:
# [1] = log P by HPLC on reversed-phase column (C 18), EEC Directive 79/831 Annex V.A8; assay type: physicochemical
# Method: In table 1, the log P values were determined in accordance with EEC Directive 79/831 Annex V.A8 by HPLC (High Performance Liquid Chromatography) on a reversed-phase column (C 18), using the method described below: Temperature: 40° C.; Mobile phases: 0.1% aqueous formic acid and acetonitrile; linear gradient from 10% acetonitrile to 90% acetonitrile. Calibration was carried out using unbranched alkan-2-ones (comprising 3 to 16 carbon atoms) with known log P values (determination of the log P values by the retention times using linear interpolation between two successive alkanones). lambda-max-values were determined using UV-spectra from 200 nm to 400 nm and the peak values of the chromatographic signals. In table 2, M+H (Apcl+) and log P are defined as for table 1.
# [2] = tested on: Puccinia recondita; test: In vivo preventive test on Puccinia recondita (brown rust on wheat); details: for protection: in words, at a dose of 500 and 100 ppm of active ingredient, analogues 11 and 13 in very similar conditions
# Method: [table] […] The young plants of wheat are treated by spraying the active ingredient prepared as described above. […] After 24 hours, the plants are contaminated by spraying the leaves with an aqueous suspension of Puccinia recondita spores. The contaminated wheat plants are incubated for 24 hours at 20° C. and at 100% relative humidity and then for 10 days at 20° C. and at 70-80% relative humidity. The test is evaluated 11 days after the inoculation. 0% means an efficacy which corresponds to that of the control plants while an efficacy of 100% means that no disease is observed.
# [3] = tested on: Uromyces appendiculatus; test: In vivo preventive test on Uromyces appendiculatus (bean rust)
# Method: [table] The active ingredients are made soluble and homogenized in a mixture of Dimethyl sulfoxide/Acetone//Tween® 80 and then diluted in water to the desired concentration. The young plants of bean are treated by spraying the active ingredient prepared as described above. Control plants are treated only with an aqueous solution of Acetone/Dimethyl sulfoxide/Tween® 80. After 24 hours, the plants are contaminated by spraying the leaves with an aqueous suspension of Uromyces appendiculatus spores. The contaminated bean plants are incubated for 24 hours at 20° C. and at 100% relative humidity and then for 10 days at 20° C. and at 70-80% relative humidity. The test is evaluated 11 days after the inoculation. 0% means an efficacy which corresponds to that of the control plants while an efficacy of 100% means that no disease is observed.
# [4] = Table 1, HPLC, 0.1% aqueous formic acid and acetonitrile, 40° C., second value of a mixture of two diastereoisomers
# [5] = Table 1, HPLC, 0.1% aqueous formic acid and acetonitrile, 40° C., single value, or first value of a mixture of two diastereoisomers
SMILES,"logP [1, 4]","logP [1, 5]",further results
Cn1nc(C(F)F)c(C(=O)N2CCCC2C2CCc3cc(Cl)cc(Cl)c32)c1Cl (mixture of isomers) [I.09],4.41,4.34,–
Cn1nc(C(F)F)c(C(=O)N2CCCC2C2CCc3cc(F)cc(F)c32)c1Cl (mixture of isomers) [I.12],3.59,3.55,–
Cn1cc(C(=O)N2CCCC2C2CCc3ccc(Cl)cc32)c(C(F)F)n1 (mixture of isomers) [I.19],3.27,3.19,–
"O=C(c1ccsc1Br)N1CCCC1C1CCc2c(F)cccc21 (single isomer, unassigned) [I.04]",–,3.87,–
"O=C(c1ccsc1Br)N1CCCC1C1CCc2c(F)cccc21 (single isomer, unassigned) [I.05]",–,3.96,–
"Cc1cc(C(=O)N2CCCC2C2CCc3c(F)cccc32)c(C)o1 (single isomer, unassigned) [I.06]",–,3.74,–
"Cc1cc(C(=O)N2CCCC2C2CCc3c(F)cccc32)c(C)o1 (single isomer, unassigned) [I.07]",–,3.90,–
"Cn1nc(C(=O)N2CCCC2C2CCc3cc(F)cc(F)c32)c(C(F)F)n1 (single isomer, unassigned) [I.14, [2-(5,7-difluoro-2,3-dihydro-1H-inden-1-yl)pyrrolidin-1-yl][5-(difluoromethyl)-2-methyl-2H-1,2,3-triazol-4-yl]methanone]",–,–,"chromatographic logP ([1]; reversed-phase HPLC column (C 18), Table 1, HPLC, 0.1% aqueous formic acid and acetonitrile, 40° C., single value, or first value of a mixture of two diastereoisomers, read-out: logP): 3.41"
"Cn1nc(C(=O)N2CCCC2C2CCc3cc(F)cc(F)c32)c(C(F)F)n1 (single isomer, unassigned) [I.15, [2-(5,7-difluoro-2,3-dihydro-1H-inden-1-yl)pyrrolidin-1-yl][5-(difluoromethyl)-2-methyl-2H-1,2,3-triazol-4-yl]methanone]",–,–,"chromatographic logP ([1]; reversed-phase HPLC column (C 18), separated diastereoisomers, preparation Example 1, read-out: log P): 3.63"
"Cc1nc(C(F)F)c(C(=O)N2CCCC2C2CCc3cc(F)cc(F)c32)s1 (single isomer, unassigned) [I.37]",–,3.52,–
"Cc1nc(C(F)F)c(C(=O)N2CCCC2C2CCc3cc(F)cc(F)c32)s1 (single isomer, unassigned) [I.38]",–,3.55,–
"Cn1cc(C(=O)N2CCCC2C2CCc3cc(F)cc(F)c32)c(C(F)(F)F)c1 (single isomer, unassigned) [I.39]",–,3.68,–
"Cn1cc(C(=O)N2CCCC2C2CCc3cc(F)cc(F)c32)c(C(F)(F)F)c1 (single isomer, unassigned) [I.40]",–,3.70,–
"Cn1nc(C(F)F)c(C(=O)N(CCc2ccccc2)C2CC2)c1F [11 from WO-2011/151369, N-cyclopropyl-3-(difluoromethyl)-5-fluoro-1-methyl-N-(2-phenylethyl)-1H-pyrazole-4-carboxamide]",–,–,"Efficacy ([2]; Table C2, dose 100 ppm, formulated in DMF with 2% of alkylarylpolyglycolether): 0 ^(a) %; Efficacy ([2]; Table C2, dose 500 ppm, formulated in DMF with 2% of alkylarylpolyglycolether): 10 ^(a) %; protection ([2]; wheat): poor (less than 40%) to no protection"
"CCC(c1ccccc1)C1CCCN1C(=O)c1c(C(F)F)nn(C)c1F (stereo not drawn) [53 from WO2012/052491, [3-(difluoromethyl)-5-fluoro-1-methyl-1H-pyrazol-4-yl][2-(1-phenylpropyl)pyrrolidin-1-yl]methanone, reference compound]",–,–,"Efficacy ([3]; Table G1, dose 100 ppm): 0%; Efficacy ([3]; Table G1, dose 500 ppm): 77%; protection ([3]; in words, at a dose of 500 and 100 ppm of active ingredient): good (at least 70%) to no protection"
"CCC(c1ccccc1)C1CCCCN1C(=O)c1c(C(F)F)nn(C)c1F (stereo not drawn) [136 from WO-2012/052489, [3-(difluoromethyl)-5-fluoro-1-methyl-1H-pyrazol-4-yl][2-(1-phenylpropyl)piperidin-1-yl]methanone]",–,–,"Efficacy ([2]; Table C1, dose 100 ppm, wheat): 50%; Efficacy ([2]; Table C1, dose 500 ppm, wheat): 65%; protection ([2]; wheat): average protection"
Cn1cc(C(=O)N2CCCC2C2CCc3cc(Cl)cc(Cl)c32)c(C(F)F)n1 (stereo not drawn) [I.08],–,3.61,–
Cn1cc(C(=O)N2CCCC2C2CCc3cc(F)cc(F)c32)c(C(F)F)n1 (stereo not drawn) [I.11],–,2.96,–
Cn1cc(C(=O)N2CCCC2C2CCc3ccc(C(C)(C)C)cc32)c(C(F)F)n1 (stereo not drawn) [I.22],–,4.16,–
"c1ccc2c(c1)CCC2C1CCCCN1 (stereo not drawn) [IIa.01, 2-(2,3-dihydro-1H-inden-1-yl)piperidine]",–,–,chromatographic logP ([1]; logP): 0.52
"c1ccc2c(c1)CCCC2C1CCCCN1 (stereo not drawn) [IIa.02, 2-(1,2,3,4-tetrahydronaphthalen-1-yl)piperidine]",–,–,chromatographic logP ([1]; logP): 1.21
"c1ccc2c(c1)CCCCC2C1CCCCN1 (stereo not drawn) [IIa.03, 2-(6,7,8,9-tetrahydro-5H-benzo[7]annulen-5-yl)piperidine]",–,–,chromatographic logP ([1]; logP): 1.31
"c1ccc2c(c1)OCCC2C1CCCCN1 (stereo not drawn) [IIa.04, 2-(3,4-dihydro-2H-chromen-4-yl)piperidine]",–,–,"chromatographic logP ([1]; reversed-phase HPLC column (C 18), Table 2, compounds of formula (IIa), HPLC as for table 1, read-out: logP): 0.82"

# Continued, in another order:
"logP [1, 4]","logP [1, 5]",SMILES,further results
2.98,2.88,Cn1cc(C(=O)N2CCCC2C2CCc3c(F)cccc32)c(C(F)F)n1 (mixture of isomers) [I.01],–
3.35,3.31,Cn1nc(C(F)F)c(C(=O)N2CCCC2C2CCc3c(F)cccc32)c1F (mixture of isomers) [I.03],–
3.41,3.35,Cn1nc(C(F)F)c(C(=O)N2CCCC2C2CCc3cc(F)cc(F)c32)c1F (mixture of isomers) [I.13],–
3.00,2.84,Cn1cc(C(=O)N2CCCC2C2CCc3cc(F)ccc32)c(C(F)F)n1 (mixture of isomers) [I.17],–
3.37,3.29,Cn1nc(C(F)F)c(C(=O)N2CCCC2C2CCc3cc(F)ccc32)c1F (mixture of isomers) [I.18],–
3.92,3.87,Cn1nc(C(F)F)c(C(=O)N2CCCC2C2CCc3ccc(Cl)cc32)c1Cl (mixture of isomers) [I.20],–
3.70,3.68,Cn1nc(C(F)F)c(C(=O)N2CCCC2C2CCc3ccc(Cl)cc32)c1F (mixture of isomers) [I.21],–
3.79,3.68,Cn1nc(C(F)F)c(C(=O)N2CCCC2C2CCCc3ccccc32)c1Cl (mixture of isomers) [I.25],–
4.77,4.56,Cn1nc(C(F)F)c(C(=S)N2CCCC2C2CCCc3ccccc32)c1Cl (mixture of isomers) [I.28],–
3.13,2.96,Cn1cc(C(=O)N2CCCCC2C2CCc3ccccc32)c(C(F)F)n1 (mixture of isomers) [I.29],–
3.55,3.44,Cn1nc(C(F)F)c(C(=O)N2CCCCC2C2CCc3ccccc32)c1F (mixture of isomers) [I.30],–
3.68,3.50,Cn1cc(C(=O)N2CCCCC2C2CCCCc3ccccc32)c(C(F)F)n1 (mixture of isomers) [I.33],–
4.15,3.96,Cn1nc(C(F)F)c(C(=O)N2CCCCC2C2CCCCc3ccccc32)c1F (mixture of isomers) [I.34],–
2.90,2.46,Cn1cc(C(=O)N2CCCCC2C2CCOc3ccccc32)c(C(F)F)n1 (mixture of isomers) [I.35],–
3.27,2.86,Cn1nc(C(F)F)c(C(=O)N2CCCCC2C2CCOc3ccccc32)c1F (mixture of isomers) [I.36],–
–,3.48,Cn1nc(C(F)F)c(C(=O)N2CCCC2C2CCc3c(F)cccc32)c1Cl (stereo not drawn) [I.02],–
–,4.14,Cn1nc(C(F)F)c(C(=O)N2CCCC2C2CCc3cc(Cl)cc(Cl)c32)c1F (stereo not drawn) [I.10],–
–,3.50,Cn1nc(C(F)F)c(C(=O)N2CCCC2C2CCc3cc(F)ccc32)c1Cl (stereo not drawn) [I.16],–
–,4.82,Cn1nc(C(F)F)c(C(=O)N2CCCC2C2CCc3ccc(C(C)(C)C)cc32)c1Cl (stereo not drawn) [I.23],–
–,3.67,Cn1nc(C(F)F)c(C(=O)N2CCCCC2C2CCCc3ccccc32)c1F (stereo not drawn) [I.31],"Efficacy ([2]; Table C1, dose 100 ppm, wheat): 64%; Efficacy ([2]; Table C1, dose 500 ppm, wheat): 93%; protection ([2]; wheat): excellent (at least 90%) to average (at least 60%) protection"
–,3.17,Cn1cc(C(=O)N2CCCCC2C2CCCc3ccccc32)c(C(F)F)n1 (stereo not drawn) [I.32],–
–,4.01,Cn1nc(C(F)F)c(C(=S)N2CCCC2C2CCc3c(F)cccc32)c1F (stereo not drawn) [I.41],–
